From patent US11691962B2 (eXIthera Pharmaceuticals, Inc., priority 2018, dated 2023) come the findings set out here.

In general, IC50 refers to the concentration at which inhibition is half-maximal.

Some results are limits rather than exact numbers.

This test deals with Factor XIa (Homo sapiens (Human), UniProt P03951). Briefly: Factor XIa enzyme inhibition assay (dose response, fluorogenic AMC substrate). To be noted: read-out: hFXIa IC50. The format is biochemical. The gist of the method: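 Fluorogenic progress curves (30 min, 1-min reads, 30° C) were recorded for 0.25 nM FXIa cleaving 50 μM Glp-Pro-Arg-AMC in Hepes pH 7.4 buffer with NaCl and Tween 20. Compounds were serially two-fold diluted, and IC50 was fitted with a Hill equation.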
Sequence of Factor XIa (P03951 388-625): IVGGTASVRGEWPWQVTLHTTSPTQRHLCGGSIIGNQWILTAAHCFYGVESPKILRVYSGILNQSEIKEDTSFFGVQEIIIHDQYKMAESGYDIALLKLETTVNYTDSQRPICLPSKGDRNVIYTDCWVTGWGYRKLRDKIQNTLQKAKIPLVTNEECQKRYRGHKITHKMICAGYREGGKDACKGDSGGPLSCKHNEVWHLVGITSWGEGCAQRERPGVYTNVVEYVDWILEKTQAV
Sequence of Factor XIa (P03951 19-387 partner): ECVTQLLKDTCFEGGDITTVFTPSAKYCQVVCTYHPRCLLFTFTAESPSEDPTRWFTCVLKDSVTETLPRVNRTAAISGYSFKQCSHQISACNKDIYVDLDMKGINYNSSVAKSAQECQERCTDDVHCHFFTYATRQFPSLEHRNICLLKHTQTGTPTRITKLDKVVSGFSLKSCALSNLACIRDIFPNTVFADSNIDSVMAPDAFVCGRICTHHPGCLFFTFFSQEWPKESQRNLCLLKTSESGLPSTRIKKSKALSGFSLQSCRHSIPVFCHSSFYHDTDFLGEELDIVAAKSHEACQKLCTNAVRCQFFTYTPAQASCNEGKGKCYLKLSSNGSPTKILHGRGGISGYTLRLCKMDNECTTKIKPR
For the molecule `CC[C@@H](NC(=O)N1C(=O)[C@H](Cc2ccnc(N)c2)[C@H]1C(=O)N(C)c1ccnn1C)c1ccc(C)c(F)c1F` [Compound 1-202, (2S,3R)-3-((2-aminopyridin-4-yl)methyl)-N2-(1-methyl-1H-pyrazol-5-yl)-N1-((R)-1-(2,3-difluoro-4-methylphenyl)propyl)-N2-methyl-4-oxoazetidine-1,2-dicarboxamide], the IC50 is less than 10 nM.
Take `CC[C@@H](NC(=O)N1C(=O)[C@H](Cc2ccnc(N)c2)[C@H]1C(=O)N(C)c1ccn(C)n1)c1cc(C)c(F)c(C)c1` [Compound 1-203, (2S,3R)-3-((2-aminopyridin-4-yl)methyl)-N2-(1-methyl-1H-pyrazol-3-yl)-N1-((R)-1-(3,5-dimethyl-4-fluorophenyl)propyl)-N2-methyl-4-oxoazetidine-1,2-dicarboxamide]: the IC50 was less than 10 nM.
For `CC[C@@H](NC(=O)N1C(=O)[C@H](Cc2ccnc(N)c2)[C@H]1C(=O)N(C)c1ccnn1C)c1cc(F)c(F)c(F)c1` [Compound 1-204, (2S,3R)-3-((2-aminopyridin-4-yl)methyl)-N2-(1-methyl-1H-pyrazol-5-yl)-N1-((R)-1-(3,4,5-trifluorophenyl)propyl)-N2-methyl-4-oxoazetidine-1,2-dicarboxamide], the IC50 was less than 10 nM.
For `CC[C@@H](NC(=O)N1C(=O)[C@H](Cc2ccnc(N)c2)[C@H]1C(=O)N(C)c1ccnn1C)c1cc(C)c(F)c(C)c1` [Compound 1-205, (2S,3R)-3-((2-aminopyridin-4-yl)methyl)-N2-(1-methyl-1H-pyrazol-5-yl)-N1-((R)-1-(3,5-dimethyl-4-fluorophenyl)propyl)-N2-methyl-4-oxoazetidine-1,2-dicarboxamide], the IC50 is less than 10 nM.
As to `CC[C@@H](NC(=O)N1C(=O)[C@H](Cc2ccnc(N)c2)[C@H]1C(=O)N(C)c1cnn(C)c1)c1cc(C)c(F)c(C)c1` [Compound 1-206, (2S,3R)-3-((2-aminopyridin-4-yl)methyl)-N2-(1-methyl-1H-pyrazol-4-yl)-N1-((R)-1-(3,5-dimethyl-4-fluorophenyl)propyl)-N2-methyl-4-oxoazetidine-1,2-dicarboxamide], the IC50 is less than 10 nM.
As for `CC[C@@H](NC(=O)N1C(=O)[C@H](Cc2ccnc(N)c2)[C@H]1C(=O)N(C)c1cnn(C)c1)c1ccc(F)c(C)c1F` [Compound 1-207, (2S,3R)-3-((2-aminopyridin-4-yl)methyl)-N2-(1-methyl-1H-pyrazol-4-yl)-N1-((R)-1-(2,4-difluoro-3-methylphenyl)propyl)-N2-methyl-4-oxoazetidine-1,2-dicarboxamide], the IC50 was less than 10 nM.
Regarding `CC[C@@H](NC(=O)N1C(=O)[C@H](Cc2ccnc(N)c2)[C@H]1C(=O)N(C)c1cnn(C)c1)c1ccc(C)c(F)c1F` [Compound 1-208, (2S,3R)-3-((2-aminopyridin-4-yl)methyl)-N2-(1-methyl-1H-pyrazol-4-yl)-N1-((R)-1-(2,3-difluoro-4-methylphenyl)propyl)-N2-methyl-4-oxoazetidine-1,2-dicarboxamide], the IC50 was less than 10 nM.
As to `CC[C@@H](NC(=O)N1C(=O)[C@H](Cc2ccnc(N)c2)[C@H]1C(=O)N(C)c1nccn1C)c1ccc(C)c(C)c1C` [Compound 1-209, (2S,3R)-3-((2-aminopyridin-4-yl)methyl)-N2-(1-methyl-1H-imidazol-2-yl)-N1-((R)-1-(2,3,4-trimethylphenyl)propyl)-N2-methyl-4-oxoazetidine-1,2-dicarboxamide], the IC50 was less than 10 nM.
Take `CC[C@@H](NC(=O)N1C(=O)[C@H](Cc2ccnc(N)c2)[C@H]1C(=O)N(C)c1nccn1C)c1ccc(F)c(F)c1F` [Compound 1-210, (2S,3R)-3-((2-aminopyridin-4-yl)methyl)-N2-(1-methyl-1H-imidazol-2-yl)-N1-((R)-1-(2,3,4-trifluorophenyl)propyl)-N2-methyl-4-oxoazetidine-1,2-dicarboxamide]: the IC50 is less than 10 nM.
On to `CC[C@@H](NC(=O)N1C(=O)[C@H](Cc2ccnc(N)c2)[C@H]1C(=O)N(C)c1nccn1C)c1ccc(F)c(C)c1C` [Compound 1-211, (2S,3R)-3-((2-aminopyridin-4-yl)methyl)-N2-(1-methyl-1H-imidazol-2-yl)-N1-((R)-1-(2,3-dimethyl-4-fluorophenyl)propyl)-N2-methyl-4-oxoazetidine-1,2-dicarboxamide], for which the IC50 is less than 10 nM.
The same measure for `CC[C@@H](NC(=O)N1C(=O)[C@H](Cc2ccnc(N)c2)[C@H]1C(=O)N(C)c1nccn1C)c1ccc(F)c(F)c1C` [Compound 1-212, (2S,3R)-3-((2-aminopyridin-4-yl)methyl)-N2-(1-methyl-1H-imidazol-2-yl)-N1-((R)-1-(3,4-difluoro-2-methylphenyl)propyl)-N2-methyl-4-oxoazetidine-1,2-dicarboxamide]: less than 10 nM; for `CC[C@@H](NC(=O)N1C(=O)[C@H](Cc2ccnc(N)c2)[C@H]1C(=O)N(C)c1ccnn1C)c1cccc(F)c1F` [Compound 1-213, (2S,3R)-3-((2-aminopyridin-4-yl)methyl)-N2-(1-methyl-1H-pyrazol-5-yl)-N1-((R)-1-(2,3-difluorophenyl)propyl)-N2-methyl-4-oxoazetidine-1,2-dicarboxamide]: less than 10 nM; for `CC[C@@H](NC(=O)N1C(=O)[C@H](Cc2ccnc(N)c2)[C@H]1C(=O)N(C)c1ccnn1C)c1ccc(F)c(C)c1` [Compound 1-214, (2S,3R)-3-((2-aminopyridin-4-yl)methyl)-N2-(1-methyl-1H-pyrazol-5-yl)-N1-((R)-1-(4-fluoro-3-methylphenyl)propyl)-N2-methyl-4-oxoazetidine-1,2-dicarboxamide]: less than 10 nM.
The figure for `CC[C@@H](NC(=O)N1C(=O)[C@H](Cc2ccnc(N)c2)[C@H]1C(=O)N(C)c1ccnn1C)c1ccc(F)c(F)c1` [Compound 1-215, (2S,3R)-3-((2-aminopyridin-4-yl)methyl)-N2-(1-methyl-1H-pyrazol-5-yl)-N1-((R)-1-(3,4-difluorophenyl)propyl)-N2-methyl-4-oxoazetidine-1,2-dicarboxamide] is less than 10 nM.
Turning to `CC[C@@H](NC(=O)N1C(=O)[C@H](Cc2ccnc(N)c2)[C@H]1C(=O)N(C)c1ccnn1C)c1ccc(C)c(F)c1` [Compound 1-216, (2S,3R)-3-((2-aminopyridin-4-yl)methyl)-N2-(1-methyl-1H-pyrazol-5-yl)-N1-((R)-1-(3-fluoro-4-methylphenyl)propyl)-N2-methyl-4-oxoazetidine-1,2-dicarboxamide], the IC50 is less than 10 nM.
With `CC[C@@H](NC(=O)N1C(=O)[C@H](Cc2ccnc(N)c2)[C@H]1C(=O)N(C)c1ccnn1C)c1cc(F)ccc1F` [Compound 1-217, (2S,3R)-3-((2-aminopyridin-4-yl)methyl)-N2-(1-methyl-1H-pyrazol-5-yl)-N1-((R)-1-(2,5-difluorophenyl)propyl)-N2-methyl-4-oxoazetidine-1,2-dicarboxamide], the IC50 is less than 10 nM.
Regarding `CC[C@@H](NC(=O)N1C(=O)[C@H](Cc2ccnc(N)c2)[C@H]1C(=O)N(C)c1nccn1C)c1ccc(C)c(C)c1F` [Compound 1-218, (2S,3R)-3-((2-aminopyridin-4-yl)methyl)-N2-(1-methyl-1H-imidazol-2-yl)-N1-((R)-1-(2-fluoro-3,4-dimethylphenyl)propyl)-N2-methyl-4-oxoazetidine-1,2-dicarboxamide], the IC50 is less than 10 nM.
The same measure for `CC[C@@H](NC(=O)N1C(=O)[C@H](Cc2ccnc(N)c2)[C@H]1C(=O)N(C)c1ccnn1C)c1cc(F)ccc1C` [Compound 1-219, (2S,3R)-3-((2-aminopyridin-4-yl)methyl)-N2-(1-methyl-1H-pyrazol-5-yl)-N1-((R)-1-(5-fluoro-2-methylphenyl)propyl)-N2-methyl-4-oxoazetidine-1,2-dicarboxamide]: less than 10 nM; for `CC[C@H](NC(=O)N1C(=O)[C@H](Cc2ccnc(N)c2)[C@H]1C(=O)N(C)c1nccn1C)c1cccc(F)c1` [Compound 1-220, (2S,3R)-3-((2-aminopyridin-4-yl)methyl)-N2-(1-methyl-1H-imidazol-2-yl)-N1-((S)-1-(3-fluorophenyl)propyl)-N2-methyl-4-oxoazetidine-1,2-dicarboxamide]: 10 to 100 nM; for `CC[C@H](NC(=O)N1C(=O)[C@H](Cc2ccnc(N)c2)[C@H]1C(=O)N(C)c1nccn1C)c1cc(F)ccc1F` [Compound 1-221, (2S,3R)-3-((2-aminopyridin-4-yl)methyl)-N2-(1-methyl-1H-imidazol-2-yl)-N1-((S)-1-(2,5-difuorophenyl)propyl)-N2-methyl-4-oxoazetidine-1,2-dicarboxamide]: 100 to 1000 nM.
Consider “(2S,3R)-3-((2-aminopyridin-4-yl)methyl)-N2-(1-methyl-1H-imidazol-2-yl)-N1-((R)-1-(3-chlorophenyl)propyl)-N1-methyl-N2-methyl-4-oxoazetidine-1,2-dicarboxamide [Compound 1-65]”, for which the IC50 lay in the range of 10 to 100 nM.
